Article PMC11063128 (Journal of the American Chemical Society, 2023)

Experiments:
MMADHC (CblD) = biological target: T1, MMADHC (CblD) (Homo sapiens, UniProt Q9H3L0, C261S/C262S); assay: UV-visible titration; type: binding
T1 sequence (Q9H3L0 1-296 C261S/C262S): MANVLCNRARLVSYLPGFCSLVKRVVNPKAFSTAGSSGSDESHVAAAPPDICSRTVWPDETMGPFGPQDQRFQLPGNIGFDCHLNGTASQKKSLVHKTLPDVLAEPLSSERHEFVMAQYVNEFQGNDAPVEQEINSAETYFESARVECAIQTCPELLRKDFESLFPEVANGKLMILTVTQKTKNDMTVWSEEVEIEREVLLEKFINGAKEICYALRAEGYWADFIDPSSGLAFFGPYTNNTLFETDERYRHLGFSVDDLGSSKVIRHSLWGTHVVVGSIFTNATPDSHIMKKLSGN

[1] = biological target: T2, C262S ^ΔNMMADHC–S–Cob(III) (human, UniProt Q9H3L0 116-296, C262S, thiolato-cob(III)alamin (cobalamin coordinated through a cysteine sulfur, -S-Cob(III))); assay: UV-visible absorbance titration
T2 sequence (looked up): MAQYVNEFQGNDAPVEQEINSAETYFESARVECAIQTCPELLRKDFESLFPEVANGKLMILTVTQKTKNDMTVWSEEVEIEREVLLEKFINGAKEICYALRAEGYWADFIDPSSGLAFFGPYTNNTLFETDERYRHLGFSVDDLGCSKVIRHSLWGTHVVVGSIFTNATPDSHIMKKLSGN

H2OCbl gave a Kd (MMADHC (CblD)) of 8.4 ± 1.9 µM.

B1: ^ΔNMTR, C-terminal half of human methionine synthase (cap, B12 and AdoMet domains, residues 661–1265) (domain or fragment, UniProt Q99707 661-1265, looked up)
chain: IQTDEWRNGPVEERLEYALVKGIEKHIIEDTEEARLNQKKYPRPLNIIEGPLMNGMKIVGDLFGAGKMFLPQVIKSARVMKKAVGHLIPFMEKEREETRVLNGTVEEEDPYQGTIVLATVKGDVHDIGKNIVGVVLGCNNFRVIDLGVMTPCDKILKAALDHKADIIGLSGLITPSLDEMIFVAKEMERLAIRIPLLIGGATTSKTHTAVKIAPRYSAPVIHVLDASKSVVVCSQLLDENLKDEYFEEIMEEYEDIRQDHYESLKERRYLPLSQARKSGFQMDWLSEPHPVKPTFIGTQVFEDYDLQKLVDYIDWKPFFDVWQLRGKYPNRGFPKIFNDKTVGGEARKVYDDAHNMLNTLISQKKLRARGVVGFWPAQSIQDDIHLYAEAAVPQAAEPIATFYGLRQQAEKDSASTEPYYCLSDFIAPLHSGIRDYLGLFAVACFGVEELSKAYEDDGDDYSSIMVKALGDRLAEAFAEELHERVRRELWAYCGSEQLDVADLRRLRYKGIRPAPGYPSQPDHTEKLTMWRLADIEQSTGIRLTESLAMAPASAVSGLYFSNLKSKYFAVGKISKDQVEDYALRKNISVAEVEKWLGPILGYDTD
For B1, the “stoichiometry N” value [1] was 1.
